This is an account of results in PMC6891768 (Marine Drugs, 2019).

The structures appear in SMILES notation. Entries after “also recorded” stand apart in the source; their conditions may differ. Like-named read-outs stand apart in the source and are kept apart here. Where only a bound is given, the exact number is not on record here.

Series [1] concerns the target T1, rat brain α4β2 nAChR (Rattus norvegicus, UniProt P09483+P12390).
T1 construct: from tissue; host or cells: whole rat brain membranes
The experiment in a line: [3H]-cytisine displacement binding, rat brain membranes.

Series [2] deals with T2, human GABAA receptor (UniProt P28472+P62813).
T2 construct: host or cells: WSS1 cells (HEK cell line)
The experiment in a line: GABAA receptor activation, membrane depolarization FlexStation assay (WSS1 cells). It is filed as cell-based. The settings on record: human GABAA receptor in HEK-derived WSS1 cells. As for the experimental part: Figure 5 Investigation of possible activation of the human GABAA receptor measured by membrane depolarization using a FlexStation assay. Each point is the mean of three separate measurements.
WSS1 cells from ATCC (Manassas, VA, USA) which express functional GABAA receptors were cultured as previously described by Wong et al.. The cells were grown to near confluence and then transferred to black well, clear bottom 96-well assay plates (Corning Incorporated, Corning, NY, USA) 12–18 h prior to the assay. Molecular Devices blue dye (Sunnyvale, CA, USA) was reconstituted as previously described. The WSS1 cells were allowed to come to room temperature, the culture medium was then aspirated, replaced with the blue dye and equilibrated for 30 min before being placed on a FlexStation 3 plate reader (Molecular Devices, Sunnyvale, CA, USA). […] Programmed readings and data analysis were performed as previously described.

Series [3] concerns the target T3, human fetal (TE671 cells) skeletal muscle nAChR (Homo sapiens, UniProt P02708+P07510+Q07001).
T3 construct: endogenous in cells; host or cells: TE671 cells (human)
The series can be described thus: Activation of human fetal skeletal muscle nAChR (TE671 cells), membrane depolarization FlexStation assay. It is filed as cell-based. On the procedure:
Figure 4 Activation of the human fetal (TE671 cells) skeletal muscle nAChR by the various stable anabaseine analogs measured by membrane depolarization using the FlexStation assay. Each point is generally the mean of four separate measurements. Responses were normalized to the 5 μM epibatidine response. Potency and efficacy estimates from these curves are found in Table 1.
(§1) Our experimental protocol was based on the initial study of Fitch et al.. Cells were seeded at a density of roughly 5 × 10^4 to 10^5 cells/well in 96-well flat-bottom black wall culture plates coated with 50 μg /ml poly-D-lysine hydrobromide (Sigma-Aldrich, 70–150 kDa) and grown overnight in 100 μL culture medium. A proprietary membrane potential dye obtained from Molecular Devices (San Diego, CA, USA) was prepared by dissolving one bottle of dye into 30 mL of Hanks Saline (pH = 7.4) containing 20 mM HEPES buffer. The cells were incubated with 100 μL of dye for 30 min at 37 °C prior to the robotically controlled concentration-response experiment. Serial dilutions of a compound for dose-response analysis were prepared in 96-well plates by evaporation of a methanolic stock solution and then reconstituted in the appropriate volume of Hanks saline. Fluid transfer and readings were performed by a FlexStation fluorimeter (Molecular Devices). Excitation and emission wavelengths were set to 530 nm and 565 nm with a cutoff of 550 nm. The first 17 s were used as a basal reading. At 18 s, a test compound was added to determine the EC50, followed by addition of 25 μL KCl (40 mM final concentration) at 160 s to serve as a fluorescence calibrant. Compounds that had no measurable depolarizing activity on the TsA201 cells were then tested for their ability to inhibit a 5 µM control ACh response. Data were fitted and graphed with Prism (GraphPad) to determine the EC50.

Series [4] deals with T4, rat α7 nAChR (Rattus norvegicus, UniProt Q05941).
T4 construct: from tissue; host or cells: rat brain membranes
The experiment in a line: biochemical. It is filed as binding.

The target of series [5] is T5, rat brain α4β2 nAChRs (Rattus norvegicus, UniProt P09483+P12390).
T5 construct: from tissue; host or cells: whole rat brain membranes
The series can be described thus: [3H]-methylcarbamylcholine binding to rat brain membranes, pH dependence. From the text:
Initially, we measured the pH-dependent binding of [^3H]-methylcarbamylcholine ([^3H]-MCC) to rat brain α4β2 nAChRs. In the absence of anabaseine we found a large (approximately 3-fold) enhancement of [^3H]-MCC binding as pH increased from 6.0 to 7.8. While interesting in its own regard, since MCC is permanently ionized, this marked pH dependence of [^3H]-MCC nAChR affinity complicated the analysis of the effect of pH on anabaseine binding, which was indirectly measured by [^3H]-MCC displacement. Anabaseine inhibition of [^3H]-MCC binding at each pH in Figure 2 is expressed with respect to the binding of [^3H]-MCC alone at the same pH, so as to compensate for [^3H]-MCC binding pH dependence. […]
Figure 2 Concentrations of the three major forms of anabaseine as a function of pH as determined by UV spectrophotometry. Left Ordinate: Concentration of each form expressed as % of the total anabaseine concentration. […]
[^3H]-[…] ([^3H]-MCC) binding assays with rat brain membranes were carried out as previously reported with a final concentration of 0.5 nM [^3H]-MCC [8, 54]; 2.8 µM atropine sulfate (Sigma-Aldrich) was added to inhibit binding to muscarinic receptors. […] Nonspecific binding was measured in the presence of 1 mM (S)-nicotine hydrogen tartrate (Sigma-Aldrich). […]

For series [6] the following is noted: cited from earlier work.
For series [7], the target named is T6, human α4β2 neuronal nAChR expressed in tsA201 cells (Homo sapiens, UniProt P17787+P43681).
T6 construct: expressed in transfected cells
The experiment in a line: Activation of human α4β2 neuronal nAChR, membrane depolarization FlexStation assay. It is filed as cell-based. On the procedure: Figure 3 Activation of the human α4β2 neuronal nAChR expressed in tsA201 cells as measured by membrane depolarization using the FlexStation assay. Each point generally is the mean of four separate measurements. All responses were normalized with respect to the response of the cells to 0.5 μM epibatidine. Potency and efficacy estimates from these curves are found in Table 1.
TsA201 cells expressing human α4β2 were maintained in media consisting of Dulbecco’s Modified Eagle medium supplemented with 10% FBS, 100 units/mL penicillin and 100 μg/mL streptomycin, 2 mM L-glutamine, 0.5 mg/mL zeocin and 0.6 mg/mL geneticin [55]. Cells were grown in 75 cm^2 culture flasks, which were housed in a humidified incubator (Fisher Scientific, Atlanta, GA, USA at 37 °C in an atmosphere of 5% CO2. They were grown to around 80–90% confluence after harvesting with 0.25% trypsin and being split weekly at a subcultivation ratio of between 1:6 and 1:10.
as §1

Series [8] deals with T7, Torpedo electric organ membrane nAChRs (Tetronarce californica, UniProt P02710+P02714+P02718).
T7 construct: from tissue; host or cells: Torpedo electric organ membranes
The experiment in a line: biochemical. It is filed as binding.

The target of series [9] is T5, rat brain α4β2 nAChRs. The settings on record: read-out: Kd of radioligand with rat brain membranes; cited from earlier work.
Series [10] has as its system vertebrate brain and neuromuscular nAChRs. The series can be described thus: Overall comparison of agonist potency and binding affinity at vertebrate nAChRs. The note with it: for activity relative to that predicted if the one form was solely active: several vertebrate brain and neuromuscular nAChRs. From the text:
PTHP was the only anabaseine analog that approached anabaseine in potency and binding affinity.
The ability of a variety of 2-(aryl)-1,4,5,6-tetrahydropyrmidines to block neuromuscular nAChRs and produce teratogenic effects in chick embryos was reported long ago [45, 46]. Some of these compounds were reported to be nAChR agonists. The only study of PTHP on neurons was that of Upshall et al. on leech Retzius cells. Our results also indicate that PTHP is a potent agonist at neuronal as well as neuromuscular nAChRs. […] For PTHP to be equipotent with anabaseine, based on the I^+ form being the only active form, its EC50 would need to be ~1/3 of the EC50 of anabaseine, since the anabaseine (I^+) is ~1/3 of its total concentration.

Series [11] in a line: Ionization and ring-chain form distribution in water. It is filed as physicochemical. From the text:
Figure 2 Concentrations of the three major forms of anabaseine as a function of pH as determined by UV spectrophotometry. Left Ordinate: Concentration of each form expressed as % of the total anabaseine concentration. The red curve is the estimated cyclic imine concentration and the blue curve is the concentration of the cyclic iminium or the monocationic ammonium-ketone form of anabaseine (Assuming that KH = 1.0, the concentrations of these ionized forms are equal). Right ordinate: pH dependence of anabaseine inhibition of [^3H]-MCC binding to rat brain α4β2 receptors (Standard error bars included). Anabaseine inhibition (mean ± SEM) at each pH was the average of six replicate measurements.
Since the two monocationic forms show the same pH dependence and the same concentration when expressed as % of total anabaseine, another approach was required to assess their activities separately. We resorted to synthesizing and testing stable analogs that resemble the three anabaseine forms. […] The monocationic ammonium-ketone open-chain form analog selected was 5-methylamino-1-(3-pyridyl)-1-pentanone, MAPP, shown in Figure 1; it mainly ([…]) exists in their open-chain form in water at physiological pH; its cyclic imine or iminium form, N-methylanabaseine, is present in very small concentration (≤5%). […]

The conditions of series [12]: no reference given; cited from earlier work.
[13] abbreviates: displacement of [3H]-cytisine, rat brain membranes, read-out: Ki Neuronal nAChR Rat α4β.

T1 sequence (P09483 31-630): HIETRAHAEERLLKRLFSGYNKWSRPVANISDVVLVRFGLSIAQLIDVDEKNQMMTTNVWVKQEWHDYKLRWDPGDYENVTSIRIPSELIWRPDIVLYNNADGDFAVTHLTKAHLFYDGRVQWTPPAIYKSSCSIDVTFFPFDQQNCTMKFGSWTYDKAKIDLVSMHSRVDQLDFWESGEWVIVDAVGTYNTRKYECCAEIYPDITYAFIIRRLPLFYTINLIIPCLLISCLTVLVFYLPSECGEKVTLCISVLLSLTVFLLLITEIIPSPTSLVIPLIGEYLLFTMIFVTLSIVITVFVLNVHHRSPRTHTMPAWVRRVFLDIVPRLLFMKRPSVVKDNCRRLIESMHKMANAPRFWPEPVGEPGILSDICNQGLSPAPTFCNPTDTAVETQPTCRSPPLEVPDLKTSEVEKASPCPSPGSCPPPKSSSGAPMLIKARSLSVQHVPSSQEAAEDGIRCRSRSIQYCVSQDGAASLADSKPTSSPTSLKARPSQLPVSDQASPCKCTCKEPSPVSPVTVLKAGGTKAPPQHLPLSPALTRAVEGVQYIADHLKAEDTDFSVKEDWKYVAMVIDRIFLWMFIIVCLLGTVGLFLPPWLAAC
T1 sequence (P12390 25-500): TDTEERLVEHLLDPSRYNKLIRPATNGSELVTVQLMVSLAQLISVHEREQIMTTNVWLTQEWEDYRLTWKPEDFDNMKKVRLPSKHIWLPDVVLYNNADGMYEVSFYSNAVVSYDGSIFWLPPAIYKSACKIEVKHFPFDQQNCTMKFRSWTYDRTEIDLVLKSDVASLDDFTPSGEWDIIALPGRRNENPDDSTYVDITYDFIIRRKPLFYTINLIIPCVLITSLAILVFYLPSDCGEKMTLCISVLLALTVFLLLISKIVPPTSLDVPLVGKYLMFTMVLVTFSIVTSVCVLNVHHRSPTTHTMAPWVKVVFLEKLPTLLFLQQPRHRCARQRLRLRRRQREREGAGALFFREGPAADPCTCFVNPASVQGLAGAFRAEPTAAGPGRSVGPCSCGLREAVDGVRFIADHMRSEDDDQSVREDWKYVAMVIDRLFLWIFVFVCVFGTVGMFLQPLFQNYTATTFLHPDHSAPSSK
T5 sequence (P09483 31-630): as the sequence (P09483 31-630) above
T5 sequence (P12390 25-500): as the sequence (P12390 25-500) above
T2 sequence (P62813 28-455): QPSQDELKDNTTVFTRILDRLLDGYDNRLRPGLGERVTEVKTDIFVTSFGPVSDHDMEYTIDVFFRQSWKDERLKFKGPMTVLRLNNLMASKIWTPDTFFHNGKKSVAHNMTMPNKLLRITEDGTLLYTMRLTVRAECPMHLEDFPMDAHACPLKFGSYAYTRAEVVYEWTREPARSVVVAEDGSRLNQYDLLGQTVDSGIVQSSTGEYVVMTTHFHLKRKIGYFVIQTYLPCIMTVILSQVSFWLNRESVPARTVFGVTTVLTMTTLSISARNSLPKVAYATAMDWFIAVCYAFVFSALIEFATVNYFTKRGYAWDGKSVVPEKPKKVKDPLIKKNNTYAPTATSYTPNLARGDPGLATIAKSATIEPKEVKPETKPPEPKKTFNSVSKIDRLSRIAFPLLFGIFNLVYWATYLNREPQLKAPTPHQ
T2 sequence (P28472 26-473): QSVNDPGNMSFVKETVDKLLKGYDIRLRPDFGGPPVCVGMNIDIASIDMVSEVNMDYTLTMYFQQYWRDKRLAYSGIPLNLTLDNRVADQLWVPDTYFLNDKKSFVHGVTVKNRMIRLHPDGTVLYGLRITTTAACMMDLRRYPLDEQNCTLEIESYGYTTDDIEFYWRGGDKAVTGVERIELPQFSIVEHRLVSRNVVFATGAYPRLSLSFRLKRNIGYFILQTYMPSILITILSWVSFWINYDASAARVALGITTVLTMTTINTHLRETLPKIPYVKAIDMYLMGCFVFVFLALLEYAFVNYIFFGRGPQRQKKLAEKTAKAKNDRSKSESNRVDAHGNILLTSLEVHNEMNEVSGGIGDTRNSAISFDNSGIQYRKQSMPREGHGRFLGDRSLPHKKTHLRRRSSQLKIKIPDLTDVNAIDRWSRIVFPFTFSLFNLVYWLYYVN
T2 sequence (P18508 39-466 partner): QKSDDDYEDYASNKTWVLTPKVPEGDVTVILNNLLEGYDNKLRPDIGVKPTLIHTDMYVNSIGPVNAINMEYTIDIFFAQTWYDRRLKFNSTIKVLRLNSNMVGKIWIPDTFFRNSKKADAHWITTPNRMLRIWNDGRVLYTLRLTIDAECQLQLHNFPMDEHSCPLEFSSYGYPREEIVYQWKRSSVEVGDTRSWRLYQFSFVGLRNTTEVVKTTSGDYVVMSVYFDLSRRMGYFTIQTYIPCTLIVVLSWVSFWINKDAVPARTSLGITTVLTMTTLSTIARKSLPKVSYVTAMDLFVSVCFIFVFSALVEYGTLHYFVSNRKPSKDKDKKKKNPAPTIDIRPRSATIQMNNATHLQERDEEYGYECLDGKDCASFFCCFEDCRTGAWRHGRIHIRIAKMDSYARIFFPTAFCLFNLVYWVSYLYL
T7 sequence (P02710 25-461): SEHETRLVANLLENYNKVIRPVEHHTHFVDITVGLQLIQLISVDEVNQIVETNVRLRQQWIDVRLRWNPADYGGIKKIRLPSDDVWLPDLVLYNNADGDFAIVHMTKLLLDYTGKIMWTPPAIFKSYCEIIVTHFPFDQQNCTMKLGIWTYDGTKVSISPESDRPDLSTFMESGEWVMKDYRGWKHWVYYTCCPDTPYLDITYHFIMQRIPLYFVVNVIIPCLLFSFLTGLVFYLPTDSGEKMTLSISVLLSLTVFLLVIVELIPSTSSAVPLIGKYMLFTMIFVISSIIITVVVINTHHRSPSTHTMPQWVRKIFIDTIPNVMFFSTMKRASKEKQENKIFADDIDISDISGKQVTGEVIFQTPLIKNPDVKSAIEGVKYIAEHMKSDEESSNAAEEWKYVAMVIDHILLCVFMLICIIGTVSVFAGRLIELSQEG
T7 sequence (P02714 18-506): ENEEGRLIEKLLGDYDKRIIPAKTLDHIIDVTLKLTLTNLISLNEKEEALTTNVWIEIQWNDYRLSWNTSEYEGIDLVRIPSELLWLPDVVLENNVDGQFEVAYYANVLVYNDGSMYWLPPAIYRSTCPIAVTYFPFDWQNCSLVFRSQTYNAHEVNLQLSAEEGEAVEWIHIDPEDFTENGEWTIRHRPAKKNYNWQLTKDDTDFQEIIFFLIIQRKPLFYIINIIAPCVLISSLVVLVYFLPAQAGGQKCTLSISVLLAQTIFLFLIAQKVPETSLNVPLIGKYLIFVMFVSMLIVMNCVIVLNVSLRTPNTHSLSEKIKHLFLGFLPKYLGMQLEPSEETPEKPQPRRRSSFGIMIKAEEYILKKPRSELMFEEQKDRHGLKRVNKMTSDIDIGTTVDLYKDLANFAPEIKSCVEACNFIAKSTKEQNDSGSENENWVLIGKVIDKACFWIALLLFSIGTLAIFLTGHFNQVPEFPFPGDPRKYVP
T7 sequence (P02712 25-493, further chain): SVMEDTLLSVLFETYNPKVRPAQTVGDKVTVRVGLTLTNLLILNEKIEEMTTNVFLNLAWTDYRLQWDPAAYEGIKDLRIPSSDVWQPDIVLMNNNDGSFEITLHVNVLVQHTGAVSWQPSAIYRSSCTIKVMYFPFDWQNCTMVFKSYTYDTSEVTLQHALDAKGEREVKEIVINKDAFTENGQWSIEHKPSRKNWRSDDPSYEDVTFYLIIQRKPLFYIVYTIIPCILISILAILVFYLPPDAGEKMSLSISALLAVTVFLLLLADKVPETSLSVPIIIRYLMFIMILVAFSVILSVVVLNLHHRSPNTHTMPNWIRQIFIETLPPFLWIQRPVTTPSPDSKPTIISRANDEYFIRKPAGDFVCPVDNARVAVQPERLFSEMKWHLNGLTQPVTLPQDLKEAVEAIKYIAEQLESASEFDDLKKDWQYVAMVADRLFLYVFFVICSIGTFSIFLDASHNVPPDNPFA
T7 sequence (P02718 22-522): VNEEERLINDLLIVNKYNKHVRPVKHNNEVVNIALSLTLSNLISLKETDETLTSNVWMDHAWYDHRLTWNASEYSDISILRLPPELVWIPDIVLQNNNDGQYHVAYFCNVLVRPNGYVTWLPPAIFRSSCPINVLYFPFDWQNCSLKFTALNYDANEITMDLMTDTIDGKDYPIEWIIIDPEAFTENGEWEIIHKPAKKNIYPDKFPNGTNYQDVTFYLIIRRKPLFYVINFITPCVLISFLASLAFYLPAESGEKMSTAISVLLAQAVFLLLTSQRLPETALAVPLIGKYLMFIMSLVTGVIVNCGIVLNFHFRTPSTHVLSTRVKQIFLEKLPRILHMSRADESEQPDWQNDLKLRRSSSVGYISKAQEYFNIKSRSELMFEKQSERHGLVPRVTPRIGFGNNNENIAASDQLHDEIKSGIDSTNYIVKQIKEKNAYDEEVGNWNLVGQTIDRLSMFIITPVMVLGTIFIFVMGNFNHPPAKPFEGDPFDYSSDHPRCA
T4 sequence (Q05941 23-502): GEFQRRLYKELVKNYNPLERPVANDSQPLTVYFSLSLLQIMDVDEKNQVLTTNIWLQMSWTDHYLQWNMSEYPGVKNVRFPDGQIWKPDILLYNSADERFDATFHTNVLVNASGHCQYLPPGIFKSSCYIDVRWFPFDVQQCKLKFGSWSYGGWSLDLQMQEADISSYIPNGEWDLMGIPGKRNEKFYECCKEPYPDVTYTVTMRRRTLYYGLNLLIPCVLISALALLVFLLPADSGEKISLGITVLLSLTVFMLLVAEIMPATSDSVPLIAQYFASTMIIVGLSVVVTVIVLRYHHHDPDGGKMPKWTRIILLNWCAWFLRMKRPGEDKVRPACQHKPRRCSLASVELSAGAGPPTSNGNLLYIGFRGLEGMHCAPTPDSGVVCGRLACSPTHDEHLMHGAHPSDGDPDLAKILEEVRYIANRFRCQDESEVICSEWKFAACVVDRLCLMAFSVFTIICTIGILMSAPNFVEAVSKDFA

In the case of `c1cncc(C2=NCCCC2)c1` [Anabaseine, anabaseine, reference compound], the Ki was 96 ± 10 nM in series [1] and 1.87 ± 0.1 µM in [4] (read-out: Ki Neuronal nAChR Rat α7). Also, in [2], the “GABAA receptor agonist activity” value was “not GABAA agonists; also recorded: no activity was detected”. The EC50 in series [3] (TE671 cells, membrane depolarization, normalized to 5 μM epibatidine response, read-out: EC50 Neuromuscular nAChR Human TE671) was 1.2 µM; in [7] (tsA201 cells, membrane depolarization, normalized to 0.5 μM epibatidine response, read-out: EC50 Neuronal nAChR Human α4β2), 2.85 ± 1 µM. Further, the “pH dependence of inhibition (displacement) of [3H]-MCC binding” value in series [5] (fixed anabaseine concentration, pH 5.8 to 7.8, relative to [3H]-MCC alone at the same pH) is on record as “did decrease with increased pH”. In addition, in series [6] (pH 7.4), the “cyclic iminium (I+) form as fraction of total concentration” value is ~ 1/3. In addition, the IC50 in [8] (read-out: IC50 Neuromuscular nAChR Torpedo Electric Organ) came to 290 ± 180 nM.
For `CNC(=O)OCC[N+](C)(C)C` [[^3H]-MCC, [^3H]-methylcarbamylcholine], the Kd in [9] is 11 nM.
As to `CNCCCCC(=O)c1cccnc1` [MAPP, 5-methylamino-1-(3-pyridyl)-1-pentanone], the Ki in series [1] (setting [13]) was 10000 nM; in [4], over 2000 µM. The results for the EC50 in series [3] and in series [7] were over 1000 µM and over 2000 µM, respectively. The “activity relative to that predicted if the one form was solely active” value in series [10] is given as at most 1%. For the same compound, in [6] (in water at physiological pH), the “concentration of cyclic imine or iminium form (N-methylanabaseine)” value is listed as at most 5%. This compound also gave an IC50 in series [8] of over 500000 nM.
Take `c1cncc(C2=NCCC2)c1` [myosmine]: in series [2], the “GABAA receptor agonist activity” value was “not GABAA agonists; also recorded: no activity was detected”.
For the compound `[3H]CNC(=O)OCC[N+](C)(C)C` [[^3H]-MCC, [^3H]-methylcarbamylcholine], in [5] (pH increased from 6.0 to 7.8, absence of anabaseine), the “enhancement of binding with increasing pH” value was “approximately 3 fold”.
With `c1ccc(-c2cccnc2)nc1` [2,3′-Bipyridyl, 2,3′-bipyridyl], the Ki in [1] (setting [13]) was over 50000 nM; in series [4] it was over 2300 µM. For the same compound, the EC50 in series [3] was 660 ± 60 µM; in [7] it was over 1000 µM. The “activity relative to that predicted if the one form was solely active” value in series [10] is at most 1%. Also, the “fraction of molecules unionized” value in series [11] (pH 7.4) is over 99.9%. In series [8], half-maximal inhibition (IC50) required 343000 ± 48000 nM.
Regarding `Cl.c1cncc(C2=NCCCN2)c1` [PTHP, 2-(3-pyridyl)-1,4,5,6-tetrahydropyrimidine hydrochloride], the Ki was found to be 380 ± 70 nM in [1] (setting [13]) and 1.54 ± 0.76 µM in [4]. Further, the results for the EC50 in series [3] and in series [7] were 1.7 ± 0.3 µM and 3.64 ± 1.2 µM, respectively. In series [12], the “pKa of amidinium group” value is over 10. In addition, the “potency relative to that predicted for the anabaseine cyclic iminium form” value in series [10] (from Figure 3, Figure 4 and Table 1) was “approximately 30%”. In series [11] (pH 7.4, predicted), the fraction ionized is on record as over 99%. Besides, in series [8], the IC50 stood at 470 ± 10 nM.
